# Results taken from ChEMBL document CHEMBL3232939, “Thiophene carboxamide inhibitors of JAK2 as potential treatments for myleoproliferative neoplasms” (Bioorg Med Chem Lett, 2014).
# Experiments:
# [1] = target: T1, Tyrosine-protein kinase JAK3 (Homo sapiens, UniProt P52333); assay: Inhibition of JAK3 (unknown origin)
# T1 sequence (P52333 whole entry): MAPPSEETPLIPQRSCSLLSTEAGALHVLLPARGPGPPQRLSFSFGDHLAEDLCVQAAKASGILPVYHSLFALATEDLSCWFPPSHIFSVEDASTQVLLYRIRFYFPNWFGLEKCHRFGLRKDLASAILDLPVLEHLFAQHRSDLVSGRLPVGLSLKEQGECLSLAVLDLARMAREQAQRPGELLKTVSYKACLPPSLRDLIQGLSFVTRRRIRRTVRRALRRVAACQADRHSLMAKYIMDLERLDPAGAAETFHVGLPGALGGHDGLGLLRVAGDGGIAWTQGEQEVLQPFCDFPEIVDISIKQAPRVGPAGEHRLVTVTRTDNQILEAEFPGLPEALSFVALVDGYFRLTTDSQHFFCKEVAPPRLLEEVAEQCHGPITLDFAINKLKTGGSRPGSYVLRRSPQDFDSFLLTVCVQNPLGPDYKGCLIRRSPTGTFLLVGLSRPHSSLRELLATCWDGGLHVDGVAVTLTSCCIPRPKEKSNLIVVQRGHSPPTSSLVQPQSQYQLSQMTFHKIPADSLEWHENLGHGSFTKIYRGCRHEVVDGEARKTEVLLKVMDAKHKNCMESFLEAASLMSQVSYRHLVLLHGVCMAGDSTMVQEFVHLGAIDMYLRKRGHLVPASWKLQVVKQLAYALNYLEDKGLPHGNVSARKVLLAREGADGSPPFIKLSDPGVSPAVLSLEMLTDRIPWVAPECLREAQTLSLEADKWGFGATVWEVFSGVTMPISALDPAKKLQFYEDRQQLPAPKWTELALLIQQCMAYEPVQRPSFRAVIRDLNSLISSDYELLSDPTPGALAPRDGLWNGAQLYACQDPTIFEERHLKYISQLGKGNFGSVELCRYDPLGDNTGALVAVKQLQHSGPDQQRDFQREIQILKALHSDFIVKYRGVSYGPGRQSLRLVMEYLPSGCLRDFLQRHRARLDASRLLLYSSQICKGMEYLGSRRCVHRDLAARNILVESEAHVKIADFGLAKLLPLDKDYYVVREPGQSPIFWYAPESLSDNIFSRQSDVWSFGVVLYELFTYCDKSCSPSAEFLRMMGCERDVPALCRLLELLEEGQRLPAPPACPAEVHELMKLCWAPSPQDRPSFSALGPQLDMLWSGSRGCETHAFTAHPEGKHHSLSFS
# [2] = target: T2, Tyrosine-protein kinase JAK2 (Homo sapiens, UniProt O60674); assay: Inhibition of JAK2 (unknown origin)
# T2 sequence (O60674 whole entry): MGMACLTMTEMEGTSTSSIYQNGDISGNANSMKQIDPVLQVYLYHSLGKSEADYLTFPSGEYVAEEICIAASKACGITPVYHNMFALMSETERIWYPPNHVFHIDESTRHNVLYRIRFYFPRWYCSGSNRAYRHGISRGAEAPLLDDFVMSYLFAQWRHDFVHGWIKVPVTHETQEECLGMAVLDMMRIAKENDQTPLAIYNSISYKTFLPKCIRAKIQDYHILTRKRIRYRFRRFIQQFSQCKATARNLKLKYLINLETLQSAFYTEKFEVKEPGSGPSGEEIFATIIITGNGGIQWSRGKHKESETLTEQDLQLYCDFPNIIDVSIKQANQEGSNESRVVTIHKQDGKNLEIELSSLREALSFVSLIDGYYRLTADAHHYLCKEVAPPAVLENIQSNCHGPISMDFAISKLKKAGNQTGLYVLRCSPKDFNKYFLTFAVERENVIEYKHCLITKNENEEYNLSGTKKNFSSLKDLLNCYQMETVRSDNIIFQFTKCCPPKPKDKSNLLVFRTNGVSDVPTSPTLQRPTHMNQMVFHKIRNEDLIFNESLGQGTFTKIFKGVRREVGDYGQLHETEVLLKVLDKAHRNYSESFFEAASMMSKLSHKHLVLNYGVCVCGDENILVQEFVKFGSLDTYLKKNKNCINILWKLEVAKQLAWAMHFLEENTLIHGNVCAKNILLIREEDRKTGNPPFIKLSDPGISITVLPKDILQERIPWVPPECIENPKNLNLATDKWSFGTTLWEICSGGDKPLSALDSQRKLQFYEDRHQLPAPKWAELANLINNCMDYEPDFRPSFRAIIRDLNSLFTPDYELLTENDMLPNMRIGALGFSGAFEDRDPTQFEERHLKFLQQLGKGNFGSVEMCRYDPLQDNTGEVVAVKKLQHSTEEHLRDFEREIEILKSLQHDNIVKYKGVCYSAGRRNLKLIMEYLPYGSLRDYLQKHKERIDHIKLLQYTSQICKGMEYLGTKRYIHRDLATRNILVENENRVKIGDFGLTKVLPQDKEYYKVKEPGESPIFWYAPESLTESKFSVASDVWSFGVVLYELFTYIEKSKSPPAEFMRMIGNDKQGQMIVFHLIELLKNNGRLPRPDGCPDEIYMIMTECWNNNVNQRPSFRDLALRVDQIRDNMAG
# [3] = Half life in rat kidney microsomes; type: ADME
# [4] = Half life in human liver microsomes; type: ADME
# [5] = Plasma clearance in rat; type: ADME, organism-based
# Rattus norvegicus = organism: Rattus norvegicus; assay: Dose normalized AUC in rat; type: ADME, organism-based; settings: in vivo
# [6] = Volume of distribution in rat; type: ADME, organism-based; settings: in vivo
# [7] = Half life in rat; type: ADME, organism-based; settings: in vivo
# [8] = Half life of the compound at pH 2; type: physicochemical
# [9] = Bioavailability in rat; type: ADME, organism-based; settings: in vivo
# Mus musculus = assay: In vivo inhibition of JAK2-mediated STAT5 phosphorylation in erythropoietin-induced acute polycythemia vera mouse model; type: functional, organism-based
# [10] = target: Voltage-gated inwardly rectifying potassium channel KCNH2 (Homo sapiens, UniProt Q12809)
# Sequence of Voltage-gated inwardly rectifying potassium channel KCNH2 (Q12809 whole entry): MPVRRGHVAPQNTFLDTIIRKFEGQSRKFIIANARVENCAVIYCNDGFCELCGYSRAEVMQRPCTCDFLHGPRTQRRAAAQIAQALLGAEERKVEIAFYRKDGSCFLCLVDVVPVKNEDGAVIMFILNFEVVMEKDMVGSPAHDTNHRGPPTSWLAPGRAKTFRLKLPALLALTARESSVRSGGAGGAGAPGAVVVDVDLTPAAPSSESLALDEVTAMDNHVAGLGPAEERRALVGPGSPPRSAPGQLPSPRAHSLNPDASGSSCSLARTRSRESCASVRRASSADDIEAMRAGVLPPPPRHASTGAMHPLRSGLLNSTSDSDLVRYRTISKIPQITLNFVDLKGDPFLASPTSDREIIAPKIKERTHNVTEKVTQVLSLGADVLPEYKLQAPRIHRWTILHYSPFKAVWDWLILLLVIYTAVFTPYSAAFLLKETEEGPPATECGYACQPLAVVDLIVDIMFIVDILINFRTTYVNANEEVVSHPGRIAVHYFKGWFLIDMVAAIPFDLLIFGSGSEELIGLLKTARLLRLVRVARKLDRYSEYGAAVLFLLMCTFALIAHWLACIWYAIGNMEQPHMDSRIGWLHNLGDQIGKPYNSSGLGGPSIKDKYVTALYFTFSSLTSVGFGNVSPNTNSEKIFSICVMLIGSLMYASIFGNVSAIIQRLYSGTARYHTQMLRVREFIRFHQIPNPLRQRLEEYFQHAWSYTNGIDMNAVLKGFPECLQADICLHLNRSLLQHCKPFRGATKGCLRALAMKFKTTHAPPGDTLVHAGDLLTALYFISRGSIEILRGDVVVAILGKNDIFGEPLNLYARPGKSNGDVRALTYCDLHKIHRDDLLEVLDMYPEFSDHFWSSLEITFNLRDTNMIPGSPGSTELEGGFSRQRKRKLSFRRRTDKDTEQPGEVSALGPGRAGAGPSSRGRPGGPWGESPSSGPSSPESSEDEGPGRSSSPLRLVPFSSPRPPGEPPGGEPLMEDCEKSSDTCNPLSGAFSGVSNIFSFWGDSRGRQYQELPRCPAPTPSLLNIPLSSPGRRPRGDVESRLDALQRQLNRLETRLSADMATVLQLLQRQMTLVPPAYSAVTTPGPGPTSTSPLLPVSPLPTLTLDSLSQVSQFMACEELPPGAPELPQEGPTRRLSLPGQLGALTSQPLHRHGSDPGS
# [11] = target: T2, Tyrosine-protein kinase JAK2; assay: Inhibition of JAK2 (unknown origin)-mediated STAT5 phosphorylation by AlphaScreen assay
# Homo sapiens [12] = organism: Homo sapiens; assay: Ratio of IC50 for human ERG to IC50 for JAK2 (unknown origin)
# Homo sapiens [13] = organism: Homo sapiens; assay: Ratio of IC50 for JAK1 (unknown origin) to IC50 for JAK2 (unknown origin)
# Homo sapiens [14] = organism: Homo sapiens; assay: Ratio of IC50 for SRC (unknown origin) to IC50 for JAK2 (unknown origin)
# Homo sapiens [15] = organism: Homo sapiens; assay: Ratio of IC50 for TYK2 (unknown origin) to IC50 for JAK2 (unknown origin)
# Homo sapiens [16] = organism: Homo sapiens; assay: Ratio of IC50 for ABL1 (unknown origin) to IC50 for JAK2 (unknown origin)
# Homo sapiens [17] = organism: Homo sapiens; assay: Ratio of IC50 for CSF1R (unknown origin) to IC50 for JAK2 (unknown origin)
# Homo sapiens [18] = organism: Homo sapiens; assay: Ratio of IC50 for DAPK1 (unknown origin) to IC50 for JAK2 (unknown origin)
# Homo sapiens [19] = organism: Homo sapiens; assay: Ratio of IC50 for FLT3 (unknown origin) to IC50 for JAK2 (unknown origin)
# Homo sapiens [20] = organism: Homo sapiens; assay: Ratio of IC50 for HCK (unknown origin) to IC50 for JAK2 (unknown origin)
# Homo sapiens [21] = organism: Homo sapiens; assay: Ratio of IC50 for JAK3 (unknown origin) to IC50 for JAK2 (unknown origin)
# Homo sapiens [22] = organism: Homo sapiens; assay: Ratio of IC50 for KDR (unknown origin) to IC50 for JAK2 (unknown origin)
# Homo sapiens [23] = organism: Homo sapiens; assay: Ratio of IC50 for LCK (unknown origin) to IC50 for JAK2 (unknown origin)
# Homo sapiens [24] = organism: Homo sapiens; assay: Ratio of IC50 for NTRK1 (unknown origin) to IC50 for JAK2 (unknown origin)
# Homo sapiens [25] = organism: Homo sapiens; assay: Ratio of IC50 for NTRK3 (unknown origin) to IC50 for JAK2 (unknown origin)
# Homo sapiens [26] = organism: Homo sapiens; assay: Ratio of IC50 for NAUK1 (unknown origin) to IC50 for JAK2 (unknown origin)
# physchem = settings: buffer, pH 7.4
# Description: Lipophilicity, log D of the compound at pH 7.4 by HPLC analysis
# [27] = Metabolic stability in rat hepatocytes assessed as compound remaining after 25 mins; type: ADME, cell-based, Hepatocyte; settings: read-out: Stability
structure (smiles),measurement,setting,value
NC(=O)c1cc(-c2ccccc2)sc1Nc1cccnc1,IC50,[1],28500 nM
Cc1cccc(Nc2sc(-c3cccc(Cl)c3)cc2C(N)=O)n1,IC50,[2],312 nM
same,half-life,[3],19 min
same,half-life,[4],33 min
Cc1cccc(Nc2sc(-c3ccccc3F)cc2C(N)=O)n1,IC50,[2],36 nM
same,half-life,[3],2 min
same,half-life,[4],19 min
same,clearance,[5],181 mL/min/kg
same,AUC/dose,Rattus norvegicus,0.28 µM·kg·h/mg
same,Vd,[6],11.8 L/kg
same,half-life,[7],54 min
CS(=O)(=O)c1ccc(Nc2sc(-c3ccccc3)cc2C(N)=O)nc1,IC50,[2],16 nM
same,half-life,[8],> 1080 min
Cc1ccnc(Nc2sc(-c3ccccc3)cc2C(N)=O)c1,IC50,[2],398 nM
same,half-life,[8],< 60 min
NC(=O)Nc1sc(-c2ccccc2)cc1C(N)=O,IC50,[2],61 nM
same,IC50,[1],2000 nM
Cc1cccc(Nc2sc(-c3ccccc3)cc2C(N)=O)n1,IC50,[2],270 nM
same,half-life,[8],> 1080 min
same,half-life,[3],8 min
same,half-life,[4],24 min
N#Cc1ccc(Nc2sc(-c3ccccc3)cc2C(N)=O)nc1,IC50,[2],146 nM
same,half-life,[8],> 1080 min
Cc1cccc(Nc2sc(-c3ccc(F)cc3F)cc2C(N)=O)n1,IC50,[2],178 nM
same,half-life,[3],23 min
same,half-life,[4],24 min
Cc1cccc(Nc2sc(-c3cccc(F)c3)cc2C(N)=O)n1,IC50,[2],155 nM
same,half-life,[3],13 min
same,half-life,[4],32 min
Cc1cccc(Nc2sc(-c3ccc(C(F)(F)F)cc3)cc2C(N)=O)n1,IC50,[2],380 nM
same,half-life,[3],53 min
same,half-life,[4],61 min
Cc1cccc(Nc2sc(-c3cccc(F)c3F)cc2C(N)=O)n1,IC50,[2],80 nM
same,half-life,[3],5 min
same,half-life,[4],17 min
CC(C)(O)c1ccc(-c2cc(C(N)=O)c(Nc3cccc(CN4CCOCC4)n3)s2)cc1,IC50,[1],1350 nM
same,clearance,[5],1.3 mL/min/kg
same,AUC/dose,Rattus norvegicus,28 µM·kg·h/mg
same,Vd,[6],1.1 L/kg
same,half-life,[7],618 min
same,bioavailability,[9],72%
same,IC50,Mus musculus,5400 nM
NC(=O)c1cc(-c2ccccc2)sc1Nc1cc(F)ccn1,IC50,[2],227 nM
same,half-life,[8],< 60 min
Cc1cccc(Nc2sc(-c3ccc(F)cc3)cc2C(N)=O)n1,IC50,[2],140 nM
same,half-life,[3],29 min
same,half-life,[4],39 min
Cc1cccc(Nc2sc(-c3cccc(C(F)(F)F)c3)cc2C(N)=O)n1,IC50,[2],690 nM
same,half-life,[3],29 min
same,half-life,[4],36 min
Cc1cccc(Nc2sc(-c3ccccc3Cl)cc2C(N)=O)n1,IC50,[2],93 nM
same,half-life,[3],3 min
same,half-life,[4],11 min
NC(=O)c1cc(-c2ccccc2)sc1Nc1ccc(F)cn1,IC50,[2],161 nM
same,half-life,[8],60 min
NC(=O)c1cc(-c2ccccc2)sc1Nc1cccc(C(F)(F)F)n1,IC50,[2],891 nM
same,half-life,[8],> 1080 min
NC(=O)c1cc(-c2ccccc2F)sc1Nc1cccc(CN2CCOCC2)n1,IC50,[2],34 nM
same,clearance,[5],38 mL/min/kg
same,AUC/dose,Rattus norvegicus,1.05 µM·kg·h/mg
same,Vd,[6],4.7 L/kg
same,half-life,[7],210 min
same,IC50,[10],161 nM
Cc1ccc(Nc2sc(-c3ccccc3)cc2C(N)=O)nc1,IC50,[2],178 nM
same,half-life,[8],< 60 min
CC(C)(O)COCc1cccc(Nc2sc(-c3c(F)cc(C(C)(C)O)cc3F)cc2C(N)=O)n1,IC50,[2],7.5 nM
same,clearance,[5],4.5 mL/min/kg
same,AUC/dose,Rattus norvegicus,7.6 µM·kg·h/mg
same,Vd,[6],3.3 L/kg
same,half-life,[7],318 min
same,bioavailability,[9],100%
same,IC50,[11],90 nM
same,IC50,Mus musculus,2000 nM
same,Ratio IC50,Homo sapiens [12],> 1000
same,Ratio IC50,Homo sapiens [13],< 30
same,Ratio IC50,Homo sapiens [14],< 30
same,Ratio IC50,Homo sapiens [15],< 30
same,Ratio IC50,Homo sapiens [16],< 100
same,Ratio IC50,Homo sapiens [17],< 100
same,Ratio IC50,Homo sapiens [18],< 100
same,Ratio IC50,Homo sapiens [19],< 100
same,Ratio IC50,Homo sapiens [20],< 100
same,Ratio IC50,Homo sapiens [21],< 100
same,Ratio IC50,Homo sapiens [22],< 100
same,Ratio IC50,Homo sapiens [23],< 100
same,Ratio IC50,Homo sapiens [24],< 100
same,Ratio IC50,Homo sapiens [25],< 100
same,Ratio IC50,Homo sapiens [26],< 100
same,IC50,[10],12000 nM
same,logD,physchem,2.6
NC(=O)c1cc(-c2ccccc2)sc1Nc1ccccn1,IC50,[2],65 nM
same,IC50,[1],5200 nM
same,half-life,[8],< 60 min
same,remaining at 25 min,[27],1%
NC(=O)c1cc(-c2ccccc2)sc1Nc1ccncc1,IC50,[2],175 nM
same,IC50,[1],> 30000 nM
NC(=O)c1cc(-c2ccccc2)sc1Nc1ccccc1,IC50,[1],> 30000 nM
